Assay results taken from the supplement of paper PMC11451515.

Tests used:
Conditions in all cases: 48 h
NOMO1 [1] = experiment: cell viability relative to DMSO control; higher = less cytotoxic
Outline: (§1)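 Viability is expressed as a percentage of DMSO wells within each plate, and cell-free wells serve as background. Seeding densities in the 1536-well plates (5 μl) were 500 cells/well for NOMO1 or SEM leukemia cells and 1000 cells/well for P12-Ichikawa. Each line was adapted for at least four passages in each medium. Library compounds in DMSO were pin-dosed at 47 μM to 0.79 nM (11 points, threefold), and CellTiter-Glo One luminescence was read after 48 h at 37°C.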

P12-Ichikawa [2] = experiment: as above
Outline: as §1

SEM cells [3] = experiment: as above
Outline: as §1

NOMO1 [4] = experiment: AUC of viability dose-response curve (% viability x log10 dose units); higher = less sensitive
Outline: (§2)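 Over 48 h at 37°C, leukemia cells in 1536-well plates (500 or 1000 cells/well), adapted to each medium, received library compounds in DMSO at 11 threefold doses from 47 μM to 0.79 nM. CellTiter-Glo One luminescence, normalised per plate to DMSO and cell-free wells, was fitted by a four-parameter log-logistic function of log10 dose. The area under the curve was then integrated by trapezoidal rule, after scaling curves above full viability and removing those that failed quality control.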

SEM cells [5] = experiment: as above
Outline: as §2

P12-Ichikawa [6] = experiment: as above
Outline: as §2

CC(C)OC(=O)/C1=C/N(CC(C)(C)C2=C1[NH]C3=CC=CC=C23)C(=O)C4=CC=C(F)C(=C4)F
cell viability [%]
Conditions	NOMO1 [1]	P12-Ichikawa [2]	SEM cells [3]
HPLM + 10% dialyzed FBS, 0.000781 µM	86.3	83.2	71.9
HPLM + 10% dialyzed FBS, 0.00234 µM	80.4	84.5	76
HPLM + 10% dialyzed FBS, 0.00702 µM	86	82.2	75.3
HPLM + 10% dialyzed FBS, 0.0211 µM	91.8	89.6	73.4
HPLM + 10% dialyzed FBS, 0.0632 µM	81.3	89.4	81
HPLM + 10% dialyzed FBS, 0.19 µM	89.8	83.4	68.9
HPLM + 10% dialyzed FBS, 0.569 µM	98.3	86.4	62
HPLM + 10% dialyzed FBS, 1.71 µM	98	83.9	72.9
HPLM + 10% dialyzed FBS, 5.12 µM	89.9	87.8	78.9
HPLM + 10% dialyzed FBS, 15.4 µM	85.6	91.6	59.6
HPLM + 10% dialyzed FBS, 46.1 µM	91.2	95.7	67.1
RPMI 5 mM glucose + 10% FBS, 0.000781 µM	72.7	79	76.8
RPMI 5 mM glucose + 10% FBS, 0.00234 µM	78.4	78.7	83.5
RPMI 5 mM glucose + 10% FBS, 0.00702 µM	79.7	79	88.2
RPMI 5 mM glucose + 10% FBS, 0.0211 µM	80.8	79	80.2
RPMI 5 mM glucose + 10% FBS, 0.0632 µM	89	83.4	79.8
RPMI 5 mM glucose + 10% FBS, 0.19 µM	79.4	83.9	67.7
RPMI 5 mM glucose + 10% FBS, 0.569 µM	84.3	84.9	71.1
RPMI 5 mM glucose + 10% FBS, 1.71 µM	76.4	82.9	71.8
RPMI 5 mM glucose + 10% FBS, 5.12 µM	82.7	87.2	79.6
RPMI 5 mM glucose + 10% FBS, 15.4 µM	78.2	84.1	61.8
RPMI 5 mM glucose + 10% FBS, 46.1 µM	83.5	83.8	78.6
RPMI 5 mM glucose + 10% dialyzed FBS, 0.000781 µM	74.5	75.3	72.9
RPMI 5 mM glucose + 10% dialyzed FBS, 0.00234 µM	74.8	77.3	82
RPMI 5 mM glucose + 10% dialyzed FBS, 0.00702 µM	70.6	78.1	80
RPMI 5 mM glucose + 10% dialyzed FBS, 0.0211 µM	70.8	85.2	86
RPMI 5 mM glucose + 10% dialyzed FBS, 0.0632 µM	69.4	78.5	94.9
RPMI 5 mM glucose + 10% dialyzed FBS, 0.19 µM	70.6	80.7	89
RPMI 5 mM glucose + 10% dialyzed FBS, 0.569 µM	66.6	75.9	71.5
RPMI 5 mM glucose + 10% dialyzed FBS, 1.71 µM	82	75.7	87.4
RPMI 5 mM glucose + 10% dialyzed FBS, 5.12 µM	80.5	78.4	106
RPMI 5 mM glucose + 10% dialyzed FBS, 15.4 µM	79.1	73.7	65.5
RPMI 5 mM glucose + 10% dialyzed FBS, 46.1 µM	72.5	82.4	73.1

AUC of viability dose-response curve
Conditions	HPLM + 10% dialyzed FBS	RPMI 5 mM glucose + 10% FBS	RPMI 5 mM glucose + 10% dialyzed FBS
NOMO1 [4]	424	384	351
SEM cells [5]	342	364	394

C1=C/COCc2cc(ccc2OCCN2CCCC2)Nc2nccc(n2)-c2cccc(c2)OCC/1
NOMO1 [1], HPLM + 10% dialyzed FBS
Conditions	cell viability [%]
0.000781 µM	20.8
0.00234 µM	84.8
0.00702 µM	123
0.0211 µM	133
0.0632 µM	161
0.19 µM	130
0.569 µM	124
1.71 µM	94.7
5.12 µM	63.2
15.4 µM	7.96
46.1 µM	5.7

AUC of viability dose-response curve
Conditions	HPLM + 10% dialyzed FBS	RPMI 5 mM glucose + 10% FBS	RPMI 5 mM glucose + 10% dialyzed FBS
P12-Ichikawa [6]	409	415	406
SEM cells [5]	354	369	350

O=C(/C=C\n1cnc(-c2cc(C(F)(F)F)cc(C(F)(F)F)c2)n1)NNc1cnccn1
AUC of viability dose-response curve
Conditions	HPLM + 10% dialyzed FBS	RPMI 5 mM glucose + 10% FBS	RPMI 5 mM glucose + 10% dialyzed FBS
P12-Ichikawa [6]	302	296	295
SEM cells [5]	310	301	309

N#CCNC(=O)c1ccc(-c2ccnc(Nc3ccc(N4CCOCC4)cc3)n2)cc1
cell viability [%]
Conditions	NOMO1 [1]	P12-Ichikawa [2]	SEM cells [3]
HPLM + 10% dialyzed FBS, 0.000781 µM	109	98.6	–
HPLM + 10% dialyzed FBS, 0.00234 µM	115	108	–
HPLM + 10% dialyzed FBS, 0.00702 µM	116	118	–
HPLM + 10% dialyzed FBS, 0.0211 µM	134	114	–
HPLM + 10% dialyzed FBS, 0.0632 µM	128	110	–
HPLM + 10% dialyzed FBS, 0.19 µM	117	110	–
HPLM + 10% dialyzed FBS, 0.569 µM	115	98.8	–
HPLM + 10% dialyzed FBS, 1.71 µM	105	111	–
HPLM + 10% dialyzed FBS, 5.12 µM	124	111	–
HPLM + 10% dialyzed FBS, 15.4 µM	87.3	77.6	–
HPLM + 10% dialyzed FBS, 46.1 µM	8.36	34	–
RPMI 5 mM glucose + 10% FBS, 0.000781 µM	88.7	97.9	98.5
RPMI 5 mM glucose + 10% FBS, 0.00234 µM	116	102	107
RPMI 5 mM glucose + 10% FBS, 0.00702 µM	101	120	122
RPMI 5 mM glucose + 10% FBS, 0.0211 µM	113	115	108
RPMI 5 mM glucose + 10% FBS, 0.0632 µM	107	111	126
RPMI 5 mM glucose + 10% FBS, 0.19 µM	106	109	116
RPMI 5 mM glucose + 10% FBS, 0.569 µM	106	95.6	103
RPMI 5 mM glucose + 10% FBS, 1.71 µM	89.5	108	107
RPMI 5 mM glucose + 10% FBS, 5.12 µM	102	102	87
RPMI 5 mM glucose + 10% FBS, 15.4 µM	86	65.6	37.9
RPMI 5 mM glucose + 10% FBS, 46.1 µM	11.3	34	13.1
RPMI 5 mM glucose + 10% dialyzed FBS, 0.000781 µM	48.6	115	91.3
RPMI 5 mM glucose + 10% dialyzed FBS, 0.00234 µM	105	103	107
RPMI 5 mM glucose + 10% dialyzed FBS, 0.00702 µM	129	109	105
RPMI 5 mM glucose + 10% dialyzed FBS, 0.0211 µM	113	113	115
RPMI 5 mM glucose + 10% dialyzed FBS, 0.0632 µM	120	109	120
RPMI 5 mM glucose + 10% dialyzed FBS, 0.19 µM	110	109	101
RPMI 5 mM glucose + 10% dialyzed FBS, 0.569 µM	99.7	99.5	91.5
RPMI 5 mM glucose + 10% dialyzed FBS, 1.71 µM	90.8	98.2	88.5
RPMI 5 mM glucose + 10% dialyzed FBS, 5.12 µM	114	97.6	65.1
RPMI 5 mM glucose + 10% dialyzed FBS, 15.4 µM	85.6	70.8	37.2
RPMI 5 mM glucose + 10% dialyzed FBS, 46.1 µM	10.8	25.3	21.6

AUC of viability dose-response curve
Conditions	HPLM + 10% dialyzed FBS	RPMI 5 mM glucose + 10% FBS	RPMI 5 mM glucose + 10% dialyzed FBS
P12-Ichikawa [6]	447	442	434
SEM cells [5]	405	412	394

COCCOc1ccc2c(c1)ncn2-c1ccc2cccc(N3CCC(N)CC3)c2n1
cell viability [%], SEM cells [3]
Conditions	HPLM + 10% dialyzed FBS	RPMI 5 mM glucose + 10% FBS	RPMI 5 mM glucose + 10% dialyzed FBS
0.000781 µM	83.8	99.7	112
0.00234 µM	77.9	115	101
0.00702 µM	70.3	109	72.2
0.0211 µM	59.8	67.6	65.2
0.0632 µM	52.5	58.7	51.3
0.19 µM	51.6	47.8	46.1
0.569 µM	46.6	50.9	44.6
1.71 µM	42.5	44.1	41.8
5.12 µM	21.7	25.8	23.7
15.4 µM	12.8	12.3	13.1
46.1 µM	4.13	3.44	3.97

AUC of viability dose-response curve
Conditions	HPLM + 10% dialyzed FBS	RPMI 5 mM glucose + 10% FBS	RPMI 5 mM glucose + 10% dialyzed FBS
NOMO1 [4]	394	418	405
P12-Ichikawa [6]	377	405	394
